Source: patent US20050112573A1, “Method of detecting toxic substance” (priority 2001, published 2005)

System: yeast genes (level of expressed mRNA)
Test: DNA chip analysis of expressed mRNA of yeast genes after 2 h culture with a toxic chemical substance
Type: cell-based, Saccharomyces cerevisiae S288C
Conditions: for The level of expressed mRNA in the presence of chemical substance/ (ratio to absence of chemical substance): stress protein genes, DNA chip
Method: Yeast (Saccharomyces cerevtisiae S288C (α SUC2mal mel gap2 CUP1)) were cultured at 25° C. on YPD medium (yeast extract 1%, polypepton 2%, glucose 2%). One of toxic chemical substances was added to the cell at logarithmic growth phase, and the cell was further cultured for two hours. Cell was cultured without any chemical substance in the same condition, and was used as control. Concentrations of the chemical substances were defined to inhibit the growth of the yeast but not lead to death.
After the completion of cultivation, the culture was centrifuged to collect the cells. To the cells, sodium acetate buffer (50 mM sodium acetate, 10 mM EDTA, 1% SDS) was added, and the mixture was shaken at 65° C. for five minutes, followed by returning to room temperature, and obtaining the supernatant, which procedure was repeated two times. To the supernatant, ½ amount of a solution of phenol/chloroform was added, and the mixture was centrifuged to give a supernatant, which was added with an equal amount of chloroform, and the mixture was centrifuged to give a supernatant. To the supernatant, an equal amount of isopropanol containing 0.3 M sodium acetate was added, and the mixture was allowed to stand at room temperature for 30 minutes, after which the mixture was centrifuged to give a sediment of the whole RNAs. Seventy % ethanol was added to the sediment, and the mixture was again centrifuged to give a sediment, which was then dried and dissolved in water. mRNA was isolated from the whole RNAs as followings. In view of the fact that a poly A chain is attached to the 3′ terminus of mRNA, a polynucleotide having a poly T structure which was immobilized on the surface of latex beads was used to trap the mRNA, and then the mRNA was washed and eluted with spine column (Oligotex-dT30<Super>mRNA Purification Kit, Takara). Reverse transcription of the mRNA was conducted with a reverse transcriptase (Super Script II Reverse Transcriptase; catalogue No. 18064-014, GibcoBRL) using fluorescence-labeled nucleotides to give cDNAs that were introduced with Cy3-dUTP or Cy5-dUTP during the reverse transcription.
The labeled cDNAs were dissolved in TE buffer (10 mM Tris-HCl/1 mM EDTA, pH8.0), and the solution was dropped on the DNA chip containing the whole genes of yeast (DNA Chip Research Inc. Japan) so that the cDNAs were hybridized on the DNA chip at 65° C. for over 12 hours. The fluoresces intensity of the DNA chip was read with a scanner, and the ratio relative to the fluorescence intensity resulting from the absence of chemical substance was estimated as the following, which is shown in Tables 1 to 9: [formula]
In the Tables, “Intensity” indicated in the rightmost column is a value of the level of expressed mRNA of each gene in control cells as divided by the average level of the expressions of the whole genes.

Compound: CCCCC[C@H](O)CC(=O)CCc1ccc(O)c(OC)c1 [(13), gingerol]
- The level of expressed mRNA in the presence of chemical substance/ in its absence, gene YDL078C (yeast gene YDL078C, ratio of DNA chip fluorescence intensity to that without chemical substance): 1.0
- The level of expressed mRNA in the presence of chemical substance/ (in its absence), gene YDL215C (yeast gene YDL215C, ratio of DNA chip fluorescence intensity to that without chemical substance): 1.5
- The level of expressed mRNA in the presence of chemical substance/The level of expressed mRNA in the absence of chemical substance (yeast gene YDL238C): 2.0
- The level of expressed mRNA in the presence of chemical substance/The level of expressed mRNA in the absence of chemical substance (yeast gene YDR055W): 3.1
- The level of expressed mRNA in the presence of chemical substance/ (in its absence), gene YDR073W (yeast gene YDR073W, ratio of DNA chip fluorescence intensity to that without chemical substance): 0.6
- The level of expressed mRNA in the presence of chemical substance/ in its absence, gene YDR079W (yeast gene YDR079W, energy system protein genes, 2 h culture with the chemical, ratio to control without chemical): 1.3
- The level of expressed mRNA in the presence of chemical substance/ (ratio to absence), gene YDR079W (yeast gene YDR079W, mitochondria-located protein genes, 2 h culture with chemical): 1.3
- The level of expressed mRNA in the presence of chemical substance/The level of expressed mRNA in the absence of chemical substance (yeast gene YDR084C): 1.0
- The level of expressed mRNA in the presence of chemical substance/The level of expressed mRNA in the absence of chemical substance (yeast gene YDR085C): 1.1
- The level of expressed mRNA in the presence of chemical substance/The level of expressed mRNA in the absence of chemical substance (yeast gene YDR104C): 1.6
- The level of expressed mRNA in the presence of chemical substance/The level of expressed mRNA in the absence of chemical substance (yeast gene YDR115W): 1.1
- The level of expressed mRNA in the presence of chemical substance/The level of expressed mRNA in the absence of chemical substance (yeast gene YDR259C): 2.0
- The level of expressed mRNA in the presence of chemical substance/ (in its absence), gene YDR297W (yeast gene YDR297W, ratio of DNA chip fluorescence intensity to that without chemical substance): 0.8
- The level of expressed mRNA in the presence of chemical substance/The level of expressed mRNA in the absence of chemical substance (yeast gene YDR315C): 1.6
- The level of expressed mRNA in the presence of chemical substance/The level of expressed mRNA in the absence of chemical substance (yeast gene YDR358W): 3.2
- The level of expressed mRNA in the presence of chemical substance/ (ratio to absence), gene YDR377W (yeast gene YDR377W, mitochondria-located protein genes, 2 h culture with chemical): 0.7
- The level of expressed mRNA in the presence of chemical substance/ (in its absence), gene YDR387C (yeast gene YDR387C, ratio of DNA chip fluorescence intensity to that without chemical substance): 1.3
- The level of expressed mRNA in the presence of chemical substance/The level of expressed mRNA in the absence of chemical substance (yeast gene YDR388W): 1.7
- The level of expressed mRNA in the presence of chemical substance/The level of expressed mRNA in the absence of chemical substance (yeast gene YDR432W): 1.4
- The level of expressed mRNA in the presence of chemical substance/The level of expressed mRNA in the absence of chemical substance (yeast gene YDR481C): 1.5
- The level of expressed mRNA in the presence of chemical substance/The level of expressed mRNA in the absence of chemical substance (yeast gene YDR510W): 2.0
- The level of expressed mRNA in the presence of chemical substance/ (ratio to absence of chemical substance) (yeast gene YEL039C): 0.5
- The level of expressed mRNA in the presence of chemical substance/The level of expressed mRNA in the absence of chemical substance (yeast gene YEL042W): 0.4
- The level of expressed mRNA in the presence of chemical substance/The level of expressed mRNA in the absence of chemical substance (yeast gene YEL066W): 1.6
- The level of expressed mRNA in the presence of chemical substance/ (in its absence), gene YER015W (yeast gene YER015W, ratio of DNA chip fluorescence intensity to that without chemical substance): 0.8
- The level of expressed mRNA in the presence of chemical substance/The level of expressed mRNA in the absence of chemical substance (yeast gene YER039C): 2.1
- The level of expressed mRNA in the presence of chemical substance/ (ratio to absence of chemical substance) (yeast gene YER057C): 1.0
- The level of expressed mRNA in the presence of chemical substance/The level of expressed mRNA in the absence of chemical substance (yeast gene YER107C): 0.9
- The level of expressed mRNA in the presence of chemical substance/The level of expressed mRNA in the absence of chemical substance (yeast gene YER130C): 1.6
- The level of expressed mRNA in the presence of chemical substance/The level of expressed mRNA in the absence of chemical substance (yeast gene YFL028C): 1.4
- The level of expressed mRNA in the presence of chemical substance/The level of expressed mRNA in the absence of chemical substance (yeast gene YFL043C): 1.5
- The level of expressed mRNA in the presence of chemical substance/ (in its absence), gene YGL035C (yeast gene YGL035C, ratio of DNA chip fluorescence intensity to that without chemical substance): 1.1
- The level of expressed mRNA in the presence of chemical substance/ (in its absence), gene YGL115W (yeast gene YGL115W, ratio of DNA chip fluorescence intensity to that without chemical substance): 0.7
- The level of expressed mRNA in the presence of chemical substance/ (ratio to absence of chemical substance) (yeast gene YGL115W): 0.7
- The level of expressed mRNA in the presence of chemical substance/The level of expressed mRNA in the absence of chemical substance (yeast gene YGL158W): 1.0
- The level of expressed mRNA in the presence of chemical substance/ (ratio to absence), gene YGL187C (yeast gene YGL187C, mitochondria-located protein genes, 2 h culture with chemical): 0.7
- The level of expressed mRNA in the presence of chemical substance/ (in its absence), gene YGL205W (yeast gene YGL205W, ratio of DNA chip fluorescence intensity to that without chemical substance): 1.0
- The level of expressed mRNA in the presence of chemical substance/The level of expressed mRNA in the absence of chemical substance (yeast gene YGL229C): 1.7
- The level of expressed mRNA in the presence of chemical substance/ in its absence, gene YGR062C (yeast gene YGR062C, energy system protein genes, 2 h culture with the chemical, ratio to control without chemical): 1.5
- The level of expressed mRNA in the presence of chemical substance/ (ratio to absence), gene YGR062C (yeast gene YGR062C, mitochondria-located protein genes, 2 h culture with chemical): 1.5
- The level of expressed mRNA in the presence of chemical substance/ (in its absence), gene YGR096W (yeast gene YGR096W, ratio of DNA chip fluorescence intensity to that without chemical substance): 1.1
- The level of expressed mRNA in the presence of chemical substance/The level of expressed mRNA in the absence of chemical substance (yeast gene YGR136W): 1.7
- The level of expressed mRNA in the presence of chemical substance/The level of expressed mRNA in the absence of chemical substance (yeast gene YGR189C): 1.2
- The level of expressed mRNA in the presence of chemical substance/The level of expressed mRNA in the absence of chemical substance (yeast gene YGR213C): 30.4
- The level of expressed mRNA in the presence of chemical substance/The level of expressed mRNA in the absence of chemical substance (yeast gene YGR257C): 2.0
- The level of expressed mRNA in the presence of chemical substance/ (in its absence), gene YGR287C (yeast gene YGR287C, ratio of DNA chip fluorescence intensity to that without chemical substance): 1.7
- The level of expressed mRNA in the presence of chemical substance/ (in its absence), gene YGR288W (yeast gene YGR288W, ratio of DNA chip fluorescence intensity to that without chemical substance): 1.3
- The level of expressed mRNA in the presence of chemical substance/ (ratio to absence of chemical substance) (yeast gene YHL028W): 2.1
- The level of expressed mRNA in the presence of chemical substance/ (ratio to absence of chemical substance) (yeast gene YHL046C): 1.4
- The level of expressed mRNA in the presence of chemical substance/The level of expressed mRNA in the absence of chemical substance (yeast gene YHR004C): 1.1
- The level of expressed mRNA in the presence of chemical substance/The level of expressed mRNA in the absence of chemical substance (yeast gene YHR071W): 2.3
- The level of expressed mRNA in the presence of chemical substance/The level of expressed mRNA in the absence of chemical substance (yeast gene YHR139C): 7.0
- The level of expressed mRNA in the presence of chemical substance/The level of expressed mRNA in the absence of chemical substance (yeast gene YHR142W): 1.2
- The level of expressed mRNA in the presence of chemical substance/ (in its absence), gene YHR210C (yeast gene YHR210C, ratio of DNA chip fluorescence intensity to that without chemical substance): 0.4
- The level of expressed mRNA in the presence of chemical substance/ (in its absence), gene YIL006W (yeast gene YIL006W, ratio of DNA chip fluorescence intensity to that without chemical substance): 0.8
- The level of expressed mRNA in the presence of chemical substance/ (ratio to absence of chemical substance) (yeast gene YIL011W): 0.5
- The level of expressed mRNA in the presence of chemical substance/The level of expressed mRNA in the absence of chemical substance (yeast gene YIL123W): 0.4
